Bridges are numbered along the chain shown (N, C = ends). Primed or numbered codes have the meaning given here. Where no end group is shown, it is not given here. [ ]: non-standard residue; d: D form. PEG4′ = not defined here
Assays:
[1] = target: human IgG; experiment: Affinity analysis by surface plasmon resonance (BIAcore T200), human IgG immobilized on sensor chip; assay type: binding; conditions: BIAcore T200, HBS-EP buffer pH 7.4, immobilized human IgG
Procedure: The affinity analysis was performed by the following method. First, a solution containing equal amounts of 0.4 M EDC (1-ethyl-3-(3-dimethylaminopropyl)-carbodiimide) and 0.1 M sulfo-NHS (sulfo-N-hydroxysuccinimide)) was injected at a flow rate of […] onto a CMS sensor chip set in BIAcore T200 (GE healthcare), thereby activating the sensor chip. Then, under the condition of pH 5.5 (10 mM Na acetate), human IgG was immobilized onto the sensor chip. For the measurement, HBS-EP buffer (10 mM HEPES, 150 mM NaCl, 0.005% Tween 20, 3 mM EDTA, pH 7.4) was used, and the binding reaction was monitored by injecting 15.6, 31.2, 62.5, 125, 250, 500, and 1000 nM of the purified cross-linked cyclic peptide described above for 180 seconds at a flow rate of […]. For measuring the dissociation reaction, only the buffer was injected for 600 seconds. The analysis of interaction parameters was performed using BIA evaluation T100 software.
In Comparative Example 1, the cross-linked cyclic peptide described in Patent Document 2 was synthesized, and measurement of affinity was performed in the same manner as in Example 1. Synthesis of the peptide and cross-linking reaction were carried out under the following conditions.

[2] = test system: human serum-derived y-globulin; experiment: Evaluation of alkali resistance: DBC after washing with 0.1 M sodium hydroxide solution; assay type: physicochemical; conditions: up to ten cycles of 0.1 M sodium hydroxide treatment
Procedure: The DBC measurement was performed using a liquid chromatography instrument AKTAexplore (GE Healthcare). After equilibrating the prepared column with an adsorption solution, 1 mg/mL human serum-derived y-globulin (Sigma-Aldrich) dissolved in the adsorption solution was fed at a flow rate of 1 mL/min. The DBC was determined from the amount of the sample fed until the value of an absorbance at 280 nm excluding the non-adsorbed component reached 10% of the absorbance of the entire sample.
To a 1-mg peptide-immobilized 1-mL column prepared by the same method as in Example 2, 10 mL of 0.1 M sodium hydroxide solution was fed. The column was then washed with 10 mL of an adsorption solution. After washing with the sodium hydroxide solution/adsorption solution for 1, 2, 5, and 10 times, measurement of DBC was performed at a flow rate of 1 mL/min in the same manner as in Example 2. The variation rate of DBC was determined based on the DBC before the sodium hydroxide treatment as 100%. […]

Substance | Kd [1] [µM] | koff [1] [s⁻¹] | kon [1] [M⁻¹ s⁻¹] | decrease in DBC by sodium hydroxide treatment (alkali resistance) [2]
N-terminal PEG4-modified, C-terminal amidated cross-linked cyclic peptide GPDCAYHRGELVWCTFH (SEQ ID NO: 31), two cysteine residues linked as in the formula [Example 1] | 0.34 | 0.22 | 650000 | almost no decrease in DBC
PEG4-modified, amidated GPDCAYHRGELVWCTFH peptide of Patent Document 2, cysteine sulfide groups linked via 1,3-dichloro-2-propanone-derived linker ([PEG4′]GPDCAYHRGELVWCTFH-NH2; bridge 5-15; not fully specified (bridges)) [Comparative Example 1, reference compound] | 4.9 | 0.005 | 1000 | 
